Data from ChEMBL document CHEMBL1212747, “In vitro activity of thimerosal against ocular pathogenic fungi” (2010).
Values after ≈ are worked out from the molar mass of the structure shown.

Experiments:
Format in all cases: functional
Fusarium sp. = assay: Antifungal activity against Fusarium sp. clinical isolates after 48 hrs by broth microdilution method
[1] = Antifungal activity against Fusarium lateritium clinical isolates after 48 hrs by broth microdilution method
Aspergillus versicolor = assay: Antifungal activity against Aspergillus versicolor species complex clinical isolates after 48 hrs by broth microdilution method
Aspergillus wentii = assay: Antifungal activity against Aspergillus wentii clinical isolates after 48 hrs by broth microdilution method
Aspergillus candidus = assay: Antifungal activity against Aspergillus candidus clinical isolates after 48 hrs by broth microdilution method
Aspergillus oryzae = assay: Antifungal activity against Aspergillus oryzae species complex clinical isolates after 48 hrs by broth microdilution method
Aspergillus ochraceus = assay: Antifungal activity against Aspergillus ochraceus clinical isolates after 48 hrs by broth microdilution method
Aspergillus flavus = assay: Antifungal activity against Aspergillus flavus species complex clinical isolates after 48 hrs by broth microdilution method
Aspergillus niger = assay: Antifungal activity against Aspergillus niger clinical isolates after 48 hrs by broth microdilution method
[2] = Antifungal activity against Fusarium poae clinical isolates after 48 hrs by broth microdilution method
Aspergillus nidulans = assay: Antifungal activity against Aspergillus nidulans clinical isolates after 48 hrs by broth microdilution method
Alternaria alternata = assay: Antifungal activity against Alternaria alternata clinical isolates after 48 hrs by broth microdilution method
Fusarium avenaceum = assay: Antifungal activity against Fusarium avenaceum species complex clinical isolates after 48 hrs by broth microdilution method
Fusarium oxysporum = assay: Antifungal activity against Fusarium oxysporum clinical isolates after 48 hrs by broth microdilution method
Aspergillus fumigatus = assay: Antifungal activity against Aspergillus fumigatus species complex clinical isolates after 48 hrs by broth microdilution method
Fusarium verticillioides = assay: Antifungal activity against Fusarium moniliforme species complex clinical isolates after 48 hrs by broth microdilution method
Fusarium solani = assay: Antifungal activity against Fusarium solani species complex clinical isolates after 48 hrs by broth microdilution method
Aspergillus sp. = assay: Antifungal activity against Aspergillus sp. clinical isolates after 48 hrs by broth microdilution method
[3] = Fusarium sp., 48 h, read-out: MIC90

Molecule: OC(Cn1cncn1)(Cn1cncn1)c1ccc(F)cc1F [FLUCONAZOLE]
- MIC90 (Fusarium sp.; [3]): > 256 µg/mL

Molecule: CCC(C)n1ncn(-c2ccc(N3CCN(c4ccc(OCC5COC(Cn6cncn6)(c6ccc(Cl)cc6Cl)O5)cc4)CC3)cc2)c1=O (stereo not given) [ITRACONAZOLE]
- MIC90 (Fusarium sp.; [3]): > 16 µg/mL

Molecule: C[C@@H](c1ncncc1F)[C@](O)(Cn1cncn1)c1ccc(F)cc1F [VORICONAZOLE]
- MIC90 (Fusarium sp.; [3]): 2 µg/mL (≈ 5.73 µM)

Molecule: THIMEROSAL
- MIC50 [1]: 0.0156 µg/mL
- MIC90 [1]: 0.0313 µg/mL
- MIC50 (Aspergillus versicolor): 0.0156 µg/mL
- MIC90 (Aspergillus versicolor): 0.0625 µg/mL
- MIC50 (Aspergillus wentii): 0.0156 µg/mL
- MIC90 (Aspergillus wentii): 0.0313 µg/mL
- MIC50 (Aspergillus candidus): 0.0156 µg/mL
- MIC90 (Aspergillus candidus): 0.0313 µg/mL
- MIC50 (Aspergillus oryzae): 0.0625 µg/mL
- MIC90 (Aspergillus oryzae): 0.0625 µg/mL
- MIC50 (Aspergillus ochraceus): 0.0156 µg/mL
- MIC90 (Aspergillus ochraceus): 0.0313 µg/mL
- MIC50 (Fusarium sp.): 0.0156 µg/mL
- MIC90 (Fusarium sp.): 0.0313 µg/mL
- MIC50 (Aspergillus flavus): 0.0625 µg/mL
- MIC90 (Aspergillus flavus): 0.0625 µg/mL
- MIC50 (Aspergillus niger): 0.0156 µg/mL
- MIC90 (Aspergillus niger): 0.0313 µg/mL
- MIC50 [2]: 0.0156 µg/mL
- MIC90 [2]: 0.0313 µg/mL
- MIC50 (Aspergillus nidulans): 0.0156 µg/mL
- MIC90 (Aspergillus nidulans): 0.0313 µg/mL
- MIC50 (Alternaria alternata): 0.0156 µg/mL
- MIC90 (Alternaria alternata): 0.0313 µg/mL
- MIC50 (Fusarium avenaceum): 0.0156 µg/mL
- MIC90 (Fusarium avenaceum): 0.0313 µg/mL
- MIC50 (Fusarium oxysporum): 0.0156 µg/mL
- MIC90 (Fusarium oxysporum): 0.0313 µg/mL
- MIC50 (Aspergillus fumigatus): 0.0313 µg/mL
- MIC90 (Aspergillus fumigatus): 0.0625 µg/mL
- MIC50 (Fusarium verticillioides): 0.0156 µg/mL
- MIC90 (Fusarium verticillioides): 0.0313 µg/mL
- MIC50 (Fusarium solani): 0.0156 µg/mL
- MIC90 (Fusarium solani): 0.0313 µg/mL
- MIC50 (Aspergillus sp.): 0.0625 µg/mL
- MIC90 (Aspergillus sp.): 0.0625 µg/mL

Molecule: CN(C/C=C/C#CC(C)(C)C)Cc1cccc2ccccc12 [TERBINAFINE]
- MIC90 (Fusarium sp.; [3]): 8 µg/mL (≈ 27.5 µM)
